Measurements as given in patent publication US12364709B2, “Bioavailable poly amines” (AMINEX THERAPEUTICS, INC., priority 2016, dated 2025).
Several values for one entry are separate records, joined by “and”; a condition that tells them apart may be missing. Equal values may be shown once.

Key:
[1] = Pharmacokinetic analysis of AMXT 1501 salt forms, single oral tablet dose; format: in vivo, beagle dogs; conditions: for Cmax / Tmax / half-life / AUC(0-t): beagle, dog, plasma, po
Text: Following dose administration all the animals had serial blood collections. Table 18 provides pharmacokinetic data obtained using the various salt forms of AMXT 1501 following single PO dosing to dogs. In Table 18, Group 1 received the free base form of AMXT 1501, Group 2 received the dicholate salt of AMXT 1501, Group 3 received the phosphate salt form of AMXT 1501, and Group 4 received the dicaprate salt form of AMXT 1501. […] In Table 18, SD refers to standard deviation and CV % refers to coefficient of variability.

[2] = 5 day repeat oral dosing PK of AMXT 1501 dicaprate; format: in vivo, beagle dogs
Method: The pharmacokinetic (PK) profiles after dosing on Days 1 and 5 were evaluated using standard noncompartmental methods. The following experimental design was used. Beagle dogs, 1 or 2 males and 1 or 2 females for a total of 3 dogs per group, were randomly assigned to the four treatment groups as outlined in Table 19. AMXT 1501 dicaprate salt was administered in tablet form once daily for five days. […] Plasma samples were analyzed for AMXT 1501 concentration via a liquid chromatography/mass spectrometry (LC/MS-MS) procedure and the resulting concentration versus time data were used to estimate individual animal PK parameters using noncompartmental analysis (NCA).

[3] = single PO dose 16.0 mg/kg (2 x 80 mg tablets), plasma AMXT 1501, 16 mg/kg
[4] = single PO dose 16.0 mg/kg, plasma AMXT 1501, 16 mg/kg
[5] = single PO dose 16.0 mg/kg, t=24 hours, plasma AMXT 1501, 16 mg/kg
[6] = 8 mg/kg PO once daily, Day 5, individual animals
[7] = 8 mg/kg PO, Day 1, individual animals
[8] = 16 mg/kg PO once daily, Day 5, individual animals
[9] = 16 mg/kg PO, Day 1, individual animals
[10] = 32 mg/kg PO once daily, Day 5, individual animals
[11] = 32 mg/kg PO, Day 1, individual animals

CCCCCCCCCCCCCCCC(=O)NCCCC[C@@H](N)C(=O)NCCCNCCCCNCCCN [AMXT 1501 dicaprate]
Cmax ([1]; 16 mg/kg, single PO dose 16.0 mg/kg (2 x 80 mg tablets), plasma AMXT 1501, read-out: Cmax Mean): 276 ng/mL | Cmax ([1]; 16 mg/kg, single PO dose 16.0 mg/kg (2 x 80 mg tablets), plasma AMXT 1501, read-out: Cmax Median): 278 ng/mL | Tmax ([1]; 16 mg/kg, single PO dose 16.0 mg/kg (2 x 80 mg tablets), plasma AMXT 1501, read-out: Tmax Mean): 6 h | Tmax ([1]; 16 mg/kg, single PO dose 16.0 mg/kg (2 x 80 mg tablets), plasma AMXT 1501, read-out: Tmax Median): 6 h | half-life ([1]; 16 mg/kg, single PO dose 16.0 mg/kg, plasma AMXT 1501, read-out: t1/2 Mean (converted)): 840 min | half-life ([1]; 16 mg/kg, single PO dose 16.0 mg/kg, plasma AMXT 1501, read-out: t1/2 Median (converted)): 804 min | AUC(0-t) ([1]; 16 mg/kg, single PO dose 16.0 mg/kg, t=24 hours, plasma AMXT 1501, read-out: AUC0-t Mean): 6580 ng·h/mL | AUC(0-t) ([1]; 16 mg/kg, single PO dose 16.0 mg/kg, t=24 hours, plasma AMXT 1501, read-out: AUC0-t Median): 6370 ng·h/mL | Cmax Max. [1, 3]: 349 ng/mL | Cmax Min. [1, 3]: 201 ng/mL | t1/2 Max. [1, 4]: 16.2 h | t1/2 Min. [1, 4]: 12.4 h | AUC0-t Max. [1, 5]: 8640 ng·h/mL | AUC0-t Min. [1, 5]: 4710 ng·h/mL | inter-animal consistency of plasma AMXT 1501 levels ([1]; single oral delivery, FIGS. 5A-5D): much more consistent inter-animal blood levels | AUC(0-t) [2, 6]: 5620 ng·h/mL and 3100 ng·h/mL | Cmax [2, 6]: 360 ng/mL and 254 ng/mL | t1/2 [2, 6]: 7.82 h | AUC(0-t) [2, 7]: 2050 ng·h/mL | Cmax [2, 7]: 168 ng/mL | AUC(0-t) [2, 8]: 11000 ng·h/mL | Cmax [2, 8]: 454 ng/mL and 714 ng/mL | Tmax [2, 8]: 12.0 h | AUC(0-t) [2, 9]: 3190 ng·h/mL and 3300 ng·h/mL | Cmax [2, 9]: 249 ng/mL | t1/2 [2, 9]: 36.2 h and 10.3 h | AUC(0-t) [2, 10]: 11000 ng·h/mL and 11100 ng·h/mL | Cmax [2, 10]: 662 ng/mL and 708 ng/mL | AUC(0-t) [2, 11]: 5830 ng·h/mL and 4900 ng·h/mL | Cmax [2, 11]: 446 ng/mL and 333 ng/mL | t1/2 [2, 11]: 27.1 h and 10.0 h | half-life ([2]; both sexes, beagle, dog, plasma, oral, Day 1, animals where it could be estimated, read-out: mean Day 1 t1/2 values, range across groups): 479 to 1390 min | half-life at 5 days ([2]; both sexes, beagle, dog, plasma, oral, Day 5, animals where it could be estimated, read-out: mean Day 5 t1/2 values, range across groups): 521 to 1250 min | AUC(0-t) ([2]; both sexes, beagle, dog, plasma, po, 8 mg/kg, 8 mg/kg PO once daily, Day 5, group mean, read-out: AUC0-t Mean): 4750 ng·h/mL | Cmax ([2]; both sexes, beagle, dog, plasma, po, 8 mg/kg, 8 mg/kg PO once daily, Day 5, group mean, read-out: Cmax Mean): 340 ng/mL | Tmax ([2]; both sexes, beagle, dog, plasma, po, 8 mg/kg, 8 mg/kg PO once daily, Day 5, group mean, read-out: Tmax Mean): 5.33 h | half-life ([2]; both sexes, beagle, dog, plasma, po, 8 mg/kg, 8 mg/kg PO once daily, Day 5, group mean, read-out: t1/2 Mean (converted)): 521 min | AUC(0-t) ([2]; both sexes, beagle, dog, plasma, po, 8 mg/kg, 8 mg/kg PO once daily, Day 5, individual animals, read-out: AUC0-t): 5530 ng·h/mL | Cmax ([2]; both sexes, beagle, dog, plasma, po, 8 mg/kg, 8 mg/kg PO once daily, Day 5, individual animals, read-out: Cmax): 405 ng/mL | Tmax ([2]; both sexes, beagle, dog, plasma, po, 8 mg/kg, 8 mg/kg PO once daily, Day 5, individual animals, read-out: Tmax): 8 h | half-life ([2]; both sexes, beagle, dog, plasma, po, 8 mg/kg, 8 mg/kg PO once daily, Day 5, individual animals, read-out: t1/2 (converted)): 573 min | AUC(0-t) ([2]; both sexes, beagle, dog, plasma, po, 8 mg/kg, 8 mg/kg PO, Day 1, group mean, read-out: AUC0-t Mean): 2030 ng·h/mL | Cmax ([2]; both sexes, beagle, dog, plasma, po, 8 mg/kg, 8 mg/kg PO, Day 1, group mean, read-out: Cmax Mean): 154 ng/mL | Tmax ([2]; both sexes, beagle, dog, plasma, po, 8 mg/kg, 8 mg/kg PO, Day 1, group mean, read-out: Tmax Mean): 6 h | half-life ([2]; both sexes, beagle, dog, plasma, po, 8 mg/kg, 8 mg/kg PO, Day 1, group mean, read-out: t1/2 Mean (converted)): 558 min | AUC(0-t) ([2]; both sexes, beagle, dog, plasma, po, 8 mg/kg, 8 mg/kg PO, Day 1, individual animals, read-out: AUC0-t): 2010 ng·h/mL | Cmax ([2]; both sexes, beagle, dog, plasma, po, 8 mg/kg, 8 mg/kg PO, Day 1, individual animals, read-out: Cmax): 139 ng/mL | Tmax ([2]; both sexes, beagle, dog, plasma, po, 8 mg/kg, 8 mg/kg PO, Day 1, individual animals, read-out: Tmax): 8 h | half-life ([2]; both sexes, beagle, dog, plasma, po, 8 mg/kg, 8 mg/kg PO, Day 1, individual animals, read-out: t1/2 (converted)): 558 min | AUC(0-t) ([2]; both sexes, beagle, dog, plasma, po, 16 mg/kg, 16 mg/kg PO once daily, Day 5, group mean, read-out: AUC0-t Mean): 8890 ng·h/mL | Cmax ([2]; both sexes, beagle, dog, plasma, po, 16 mg/kg, 16 mg/kg PO once daily, Day 5, group mean, read-out: Cmax Mean): 564 ng/mL | Tmax ([2]; both sexes, beagle, dog, plasma, po, 16 mg/kg, 16 mg/kg PO once daily, Day 5, group mean, read-out: Tmax Mean): 8 h | half-life ([2]; both sexes, beagle, dog, plasma, po, 16 mg/kg, 16 mg/kg PO once daily, Day 5, group mean, read-out: t1/2 Mean (converted)): 702 min | AUC(0-t) ([2]; both sexes, beagle, dog, plasma, po, 16 mg/kg, 16 mg/kg PO once daily, Day 5, individual animals, read-out: AUC0-t): 9410 ng·h/mL | Cmax ([2]; both sexes, beagle, dog, plasma, po, 16 mg/kg, 16 mg/kg PO once daily, Day 5, individual animals, read-out: Cmax): 523 ng/mL | half-life ([2]; both sexes, beagle, dog, plasma, po, 16 mg/kg, 16 mg/kg PO once daily, Day 5, individual animals, read-out: t1/2 (converted)): 702 min | AUC(0-t) ([2]; both sexes, beagle, dog, plasma, po, 16 mg/kg, 16 mg/kg PO, Day 1, group mean, read-out: AUC0-t Mean): 3450 ng·h/mL | Cmax ([2]; both sexes, beagle, dog, plasma, po, 16 mg/kg, 16 mg/kg PO, Day 1, group mean, read-out: Cmax Mean): 238 ng/mL | Tmax ([2]; both sexes, beagle, dog, plasma, po, 16 mg/kg, 16 mg/kg PO, Day 1, group mean, read-out: Tmax Mean): 5.33 h | half-life ([2]; both sexes, beagle, dog, plasma, po, 16 mg/kg, 16 mg/kg PO, Day 1, group mean, read-out: t1/2 Mean (converted)): 1390 min | AUC(0-t) ([2]; both sexes, beagle, dog, plasma, po, 16 mg/kg, 16 mg/kg PO, Day 1, individual animals, read-out: AUC0-t): 3870 ng·h/mL | Cmax ([2]; both sexes, beagle, dog, plasma, po, 16 mg/kg, 16 mg/kg PO, Day 1, individual animals, read-out: Cmax): 202 ng/mL | Tmax ([2]; both sexes, beagle, dog, plasma, po, 16 mg/kg, 16 mg/kg PO, Day 1, individual animals, read-out: Tmax): 8 h | AUC(0-t) ([2]; both sexes, beagle, dog, plasma, po, 32 mg/kg, 32 mg/kg PO once daily, Day 5, group mean, read-out: AUC0-t Mean): 13000 ng·h/mL | Cmax ([2]; both sexes, beagle, dog, plasma, po, 32 mg/kg, 32 mg/kg PO once daily, Day 5, group mean, read-out: Cmax Mean): 837 ng/mL | Tmax ([2]; both sexes, beagle, dog, plasma, po, 32 mg/kg, 32 mg/kg PO once daily, Day 5, group mean, read-out: Tmax Mean): 6.67 h | half-life ([2]; both sexes, beagle, dog, plasma, po, 32 mg/kg, 32 mg/kg PO once daily, Day 5, group mean, read-out: t1/2 Mean (converted)): 642 min | AUC(0-t) ([2]; both sexes, beagle, dog, plasma, po, 32 mg/kg, 32 mg/kg PO once daily, Day 5, individual animals, read-out: AUC0-t): 16800 ng·h/mL | Cmax ([2]; both sexes, beagle, dog, plasma, po, 32 mg/kg, 32 mg/kg PO once daily, Day 5, individual animals, read-out: Cmax): 1140 ng/mL | Tmax ([2]; both sexes, beagle, dog, plasma, po, 32 mg/kg, 32 mg/kg PO once daily, Day 5, individual animals, read-out: Tmax): 4 h | half-life ([2]; both sexes, beagle, dog, plasma, po, 32 mg/kg, 32 mg/kg PO once daily, Day 5, individual animals, read-out: t1/2 (converted)): 642 min | AUC(0-t) ([2]; both sexes, beagle, dog, plasma, po, 32 mg/kg, 32 mg/kg PO, Day 1, group mean, read-out: AUC0-t Mean): 5660 ng·h/mL | Cmax ([2]; both sexes, beagle, dog, plasma, po, 32 mg/kg, 32 mg/kg PO, Day 1, group mean, read-out: Cmax Mean): 447 ng/mL | Tmax ([2]; both sexes, beagle, dog, plasma, po, 32 mg/kg, 32 mg/kg PO, Day 1, group mean, read-out: Tmax Mean): 5.33 h | half-life ([2]; both sexes, beagle, dog, plasma, po, 32 mg/kg, 32 mg/kg PO, Day 1, group mean, read-out: t1/2 Mean (converted)): 1120 min | AUC(0-t) ([2]; both sexes, beagle, dog, plasma, po, 32 mg/kg, 32 mg/kg PO, Day 1, individual animals, read-out: AUC0-t): 6250 ng·h/mL | Cmax ([2]; both sexes, beagle, dog, plasma, po, 32 mg/kg, 32 mg/kg PO, Day 1, individual animals, read-out: Cmax): 563 ng/mL | Tmax ([2]; both sexes, beagle, dog, plasma, po, 32 mg/kg, 32 mg/kg PO, Day 1, individual animals, read-out: Tmax): 8 h | Tmax ([2]; both sexes, beagle, dog, plasma, po, 32 mg/kg, single or repeat once daily PO 8, 16, or 32 mg/kg, postdose, read-out: Tmax observed): 4 to 12 h
